Experimental data taken from US20230390274A1 (EPIRIUM BIO INC., priority 2020, published 2023).
pIC50: −log10 of the molar value. Where two headings read alike, the source gives them in different places.

Target: 15-PGDH/HPGD (Homo sapiens (Human), UniProt P15428)
Assay: hPGDH inhibitor screening biochemical assay
How it was run: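 10 nM recombinant 15-PGDH was preincubated with compound (10-point) for 10 min at 37° C. in 50 mM Tris-HCl pH 7.5, 0.01% Tween 20. Then 15 μM PGE2 and 0.25 mM NAD+ were added for 10 min at rt. NADH fluorescence (ex/em 340/485 nm) gave % inhibition versus 1% DMSO and a four-parameter IC50.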

[1] = 10 nM 15-PGDH/HPGD, 15 μM PGE2, 0.25 mM NAD, read-out: hPGDH: Average IC50
[2] = Table 1, PGDH inhibitors with a 6-5 ring core, read-out: hPGDH: IC50
[3] = Table 2, PGDH inhibitors with a phenyl core, read-out: hPGDH: IC50

Sequence of 15-PGDH/HPGD (P15428 whole entry): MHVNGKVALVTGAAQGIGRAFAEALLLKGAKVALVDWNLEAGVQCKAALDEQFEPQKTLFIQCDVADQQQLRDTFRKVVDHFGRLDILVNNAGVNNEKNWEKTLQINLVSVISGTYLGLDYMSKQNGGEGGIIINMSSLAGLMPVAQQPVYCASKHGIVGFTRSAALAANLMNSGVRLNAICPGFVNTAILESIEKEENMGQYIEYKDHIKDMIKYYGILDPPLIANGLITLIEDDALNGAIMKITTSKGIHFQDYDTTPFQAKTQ

Row | pIC50 [1] | Structure (SMILES) | other results
1 | > 7.00 | COc1ccc(-n2cc(Cl)c3cc(C(=O)N4CCC(F)CC4)cnc32)cc1 [A-165, (3-chloro-1-(4-methoxyphenyl)-1H-pyrrolo[2,3-b]pyridin-5-yl)(4-fluoropiperidin-1-yl)methanone] | 
2 | > 7.00 | O=C(c1ccc2c(c1)ncn2-c1cccc(Cl)c1)N1CCCCCC1 [A-2] | 
3 | > 7.00 | CCOC(=O)c1nc2cc(C(=O)N3CCCCC3)ccc2n1-c1cccc(Cl)c1 [A-26] | 
4 | > 7.00 | O=C(c1cnc2c(ccn2-c2cccc(Cl)c2)c1)N1CCCCC1 [A-40] | 
5 | > 7.00 | NC(=O)c1ncc(-n2ccc3cc(C(=O)N4CCCCC4)cnc32)cn1 [A-125] | 
6 | > 7.00 | COc1ccc(Cn2cc3cc(-n4ccc5cc(C(=O)N6CCCCC6)cnc54)ccc3n2)cc1 [A-121] | 
7 | > 7.00 | O=C(c1cnc2c(ccn2-c2ccc(-c3nn[nH]n3)cc2)c1)N1CCC(F)(F)CC1 [A-290, (1-(4-(2H-tetrazol-5-yl)phenyl)-1H-pyrrolo[2,3-b]pyridin-5-yl)(4,4-difluoropiperidin-1-yl)methanone] | 
8 | > 7.00 | Cc1nc(-c2cncc(-n3ccc4cc(C(=O)N5CCC(F)(F)CC5)cnc43)c2)no1 [A-265, (4,4-difluoropiperidin-1-yl)(1-(5-(5-methyl-1,2,4-oxadiazol-3-yl)pyridin-3-yl)-1H-pyrrolo[2,3-b]pyridin-5-yl)methanone] | 
9 | > 7.00 | NS(=O)(=O)c1ccc(-n2ccc3cc(C(=O)N4CCC(F)(F)CC4)cnc32)cc1 [A-280] | 
10 | > 7.00 | O=C(O)CCc1nc2cc(C(=O)N3CCCCC3)ccc2n1-c1cccc(Cl)c1 [A-30] | 
11 | > 7.00 | N#Cc1cccc(-n2ccc3cc(C(=O)N4CCCCC4)cnc32)c1 [A-148] | 
12 |  | Cc1nc2cc(C(=O)N3CCCCC3)ccc2n1-c1cccc(Cl)c1 [drawing 89] | pIC50 [2]: 8.25
13 |  | O=C(c1ccc2c(c1)ncn2-c1cccc(Cl)c1)N1CCC(F)(F)CC1 [drawing 96] | pIC50 [2]: 7.91
14 | > 7.00 | O=C(c1cnc2c(c1)c(Cl)cn2-c1cncc(Cl)c1)N1CCCCC1 [A-170] | 
15 | > 7.00 | N/C(=N\O)c1cccc(-n2ccc3cc(C(=O)N4CCCCC4)cnc32)c1 [A-213] | 
16 | > 7.00 | O=C(c1cnc2c(ccn2-c2ccncn2)c1)N1CCC(F)CC1 [A-53] | 
17 | > 7.00 | N#Cc1cccc(-n2ccc3cc(C(=O)N4CCC(F)CC4)cnc32)c1 [A-115] | 
18 | > 7.00 | CC(C)(CC(=O)O)NC(=O)c1ccc(-n2ccc3cc(C(=O)N4CCC(F)(F)CC4)cnc32)cc1 [A-235] | 
19 | > 7.00 | O=C(NC1CCS(=O)(=O)CC1)c1cc(Cl)cc(-n2ccc3cc(C(=O)N4CCC(F)(F)CC4)cnc32)c1 [A-272] | 
20 | ≤ 6.00 | COc1ccc(-n2c(CCNC(C)=O)nc3cc(C(=O)N4CCC(F)CC4)cnc32)cc1 [A-198] | 
21 | > 7.00 | O=C(Nc1ccno1)c1ccc(-n2ccc3cc(C(=O)N4CCC(F)(F)CC4)cnc32)cn1 [A-258] | 
22 | > 7.00 | C[C@H]1CCCN(C(=O)c2cnc3c(ccn3-c3ccc(C(=O)O)cc3)c2)C1 [A-339, (S)-4-(5-(3-methylpiperidine-1-carbonyl)-1H-pyrrolo[2,3-b]pyridin-1-yl)benzoic acid] | 
23 | > 7.00 | CCNC(=O)c1ccc(-n2ccc3cc(C(=O)N4CCC(F)(F)CC4)cnc32)nc1 [A-268, 6-(5-(4,4-difluoropiperidine-1-carbonyl)-1H-pyrrolo[2,3-b]pyridin-1-yl)-N-ethylnicotinamide] | 
24 | > 7.00 | O=C(c1cnc2c(ccn2-c2cccnc2)c1)N1CCC(F)CC1 [A-56] | 
25 | > 7.00 | O=C(Nc1cc(C2CC2)[nH]n1)c1cncc(-n2ccc3cc(C(=O)N4CCC(F)(F)CC4)cnc32)c1 [A-285, N-(5-cyclopropyl-1H-pyrazol-3-yl)-5-(5-(4,4-difluoropiperidine-1-carbonyl)-1H-pyrrolo[2,3-b]pyridin-1-yl)nicotinamide] | 
26 | > 7.00 | O=C(c1cnc2c(ccn2-c2ccn3ccnc3c2)c1)N1CCCCC1 [A-112] | 

Row | pIC50 [1] | Structure (SMILES) | other results
27 | > 7.00 | CS(=O)(=O)c1ccc(-n2ccc3cc(C(=O)N4CCCCC4)cnc32)cc1 [A-153] | 
28 | > 7.00 | N#Cc1ccc(-n2ccc3cc(C(=O)N4CCCCC4)cnc32)cc1 [A-147] | 
29 | ≤ 6.00 | N#Cc1ccc(-n2ccc3nc(C(=O)N4CCC(F)CC4)ccc32)cc1 [A-259, 4-(5-(4-fluoropiperidine-1-carbonyl)-1H-pyrrolo[3,2-b]pyridin-1-yl)benzonitrile] | 
30 | > 7.00 | N#Cc1cncc(-n2ccc3cc(C(=O)N4CCCCC4)cnc32)c1 [A-351] | 
31 | ≤ 6.00 | Cc1nc2c(ccn2-c2cnccn2)cc1C(=O)N1CCC(F)CC1 [A-174] | 
32 | > 7.00 | Cc1cc(-n2ccc3cc(C(=O)N4CCCCC4)cnc32)cnc1N [A-208] | 
33 | > 7.00 | NC(=O)c1ccc(-n2ccc3cc(C(=O)N4CCCCC4)cnc32)cc1 [A-159] | 
34 | > 7.00 | CS(=O)(=O)NC(=O)c1ccc(-n2ccc3cc(C(=O)N4CCC(F)(F)CC4)cnc32)cc1 [A-232, 4-(5-(4,4-difluoropiperidine-1-carbonyl)-1H-pyrrolo[2,3-b]pyridin-1-yl)-N-(methylsulfonyl)benzamide] | 
35 | ≤ 6.00 | O=C(c1ccc2c(c1)ncn2-c1cccc(Cl)c1)N1CCC(F)(F)C1 [A-10] | 
36 | > 7.00 | N#Cc1ccc(-n2cc(Cl)c3cc(C(=O)N4CCC(F)CC4)cnc32)cc1 [A-207] | 
37 |  | COc1cccc(C(=O)Nc2ccc(C(=O)N3CCCCC3)cc2)c1 | pIC50 [3]: 6.87
38 | > 7.00 | O=C(c1ccc(COc2ccccc2-c2cnc[nH]2)cc1)N1CCCCC1 [A-78] | 
39 | > 7.00 | NC(=O)c1ccc(-n2cnc3cc(C(=O)N4CCC(F)(F)CC4)cnc32)cc1 [A-195] | 
40 | > 7.00 | Cn1cc(-n2ccc3cc(C(=O)N4CCC(F)CC4)cnc32)cn1 [A-58] | 
41 | > 7.00 | CCc1nc2cc(C(=O)N3CCC(F)CC3)ccc2n1-c1ccc(OC)cc1 [A-306] | 
42 | > 7.00 | COc1ccc(-n2cnc3cc(C(=O)N4CCC(F)(F)CC4)cnc32)cc1 [A-65] | 
43 | > 7.00 | CCOc1ccc(-n2cnc3cc(C(=O)N4CCCCC4)cnc32)cc1 [A-186] | 
44 | > 7.00 | O=C(c1cnc2c(ccn2-c2ccc(CO)cc2)c1)N1CCCCC1 [A-163] | 
45 | > 7.00 | O=C(NC1(C(=O)O)CC1)c1ccc(-n2ccc3cc(C(=O)N4CCC(F)(F)CC4)cnc32)cn1 [A-234, 1-(5-(5-(4,4-difluoropiperidine-1-carbonyl)-1H-pyrrolo[2,3-b]pyridin-1-yl)picolinamido)cyclopropane-1-carboxylic acid] | 
46 | ≤ 6.00 | COCCc1nc2cc(C(=O)N3CCC(F)CC3)cnc2n1-c1ccc(OC)cc1 [A-342] | 
47 |  | COc1cc(C(=O)N2CCCCC2)ccc1COc1ccccc1Cl [drawing 115] | pIC50 [3]: 8.07
48 | > 7.00 | O=C(c1cnc2c(ccn2-c2cncc(-c3n[nH]c(C4CC4)n3)c2)c1)N1CCC(F)(F)CC1 [A-332, (1-(5-(5-cyclopropyl-1H-1,2,4-triazol-3-yl)pyridin-3-yl)-1H-pyrrolo[2,3-b]pyridin-5-yl)(4,4-difluoropiperidin-1-yl)methanone] | 
49 | > 7.00 | CN(C)C(=O)c1cncc(-n2ccc3cc(C(=O)N4CCCCC4)cnc32)c1 [A-350] | 
50 | > 7.00 | O=C(c1cnc2c(ccn2-c2cncnc2)c1)N1CCCCC1 [A-44] | 
51 | > 7.00 | COc1ccc(-n2c(CCC(C)(C)O)cc3cc(C(=O)N4CCCCC4)cnc32)cc1 [A-326, (2-(3-hydroxy-3-methylbutyl)-1-(4-methoxyphenyl)-1H-pyrrolo[2,3-b]pyridin-5-yl)(piperidin-1-yl)methanone] | 

Row | Structure (SMILES) | pIC50 [1] | other results
52 | CN(C)C(=O)c1ccc(-n2ccc3cc(C(=O)N4CCCCC4)cnc32)cc1 [A-141] | > 7.00 | 
